Data: ChEMBL document CHEMBL1201862, “PubChem BioAssay data set” (2004)
Calls of active or inactive are those of the source.

Experiments:
[1] = P. falciparum Dd2 growth inhibitors, dose response, SYBR Green, cherry-picked samples (AID 1159567); assay type: functional, cell-based
[2] = P. falciparum Dd2 growth inhibitors, dose response, SYBR Green, dry powder samples (AID 1159566); assay type: functional, cell-based;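 also: potency for growth inhibition with lower SYBR green DNA signal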
[3] = HepG2 cell cytotoxicity, dose response, cytotoxicity control, plate reader, dry powder samples (AID 1159569); assay type: functional, cell-based;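 also: inhibitor potency with signal falling toward the positive control level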
[4] = P. falciparum 3D7-ScDHODH growth inhibitors, dose response, SYBR Green, dry powder samples (AID 1159570); assay type: functional, cell-based;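 also: parasite growth measured after 72 hours of compound exposure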
[5] = P. falciparum ATP4 D1247Y mutant growth inhibitors, dose response, NITD609-resistant line, SYBR Green, dry powder (AID 1159571); assay type: functional, cell-based;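 also: parasites synchronized at ring stage by sorbitol before testing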
[6] = HepG2 cell cytotoxicity, dose response, cytotoxicity control, cherry-picked samples (AID 1159577); assay type: functional, cell-based
[7] = C. albicans growth with fluconazole, confirmation, fluorescence, retest (AID 2467); assay type: functional, cell-based
[8] = target: Heat shock protein HSP 90-alpha (Homo sapiens, UniProt P07900); assay type: functional, organism-based
[9] = NIH-3T3 fibroblast cytotoxicity, dose response, cytotoxicity control, cell-based, fluorescence, Alamar Blue, secondary assay (AID 2327); assay type: functional;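 also: NIH-3T3 mouse fibroblasts cultured with fluconazole at 8 µg/mL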
[10] = A549 cell cytotoxicity, dose response, cytotoxicity control, cherry-picks, 26 µM top dose (AID 1053119); assay type: functional, cell-based
[11] = control 3'UTR Renilla luciferase suppression, dose response, counter-screen for Shn3 inhibitor project, cell-based, Clone20-Shn3RL, cherry-picked (AID 624133); assay type: functional
[12] = Shn3 3'UTR reporter inhibitors, dose response, cell-based, Clone20 osteoblasts, firefly luciferase, cherry-picked (AID 624132); assay type: functional;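 also: firefly luciferase luminescence from reporter carrying the Shn3 3'UTR in osteoblasts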
[13] = reduction of Shn3 3'UTR firefly luciferase signal, dose response, Schnurri-3 inhibitor project, cell-based, Clone20 osteoblasts, cherry-pick, set 2 (AID 720490); assay type: functional;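 also: actives lower the luminescence signal as inhibitors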
[14] = HepG2 cell cytotoxicity, dose response, cytotoxicity control for Shn3 inhibitor project, CellTiter-Glo, cherry-picked (AID 624134); assay type: functional, cell-based
[15] = system: HEK293; test: NOD1 signaling inhibitors, primary screen, cell-based, luminescence, uHTS (AID 1578); assay type: functional; conditions: Homo sapiens
[16] = system: HEK293; test: NOD2 signaling inhibitors in MDP-stimulated cells, cell-based, uHTS, luminescence (AID 2001); assay type: functional; conditions: Homo sapiens
[17] = cytotoxicity toward NIH3T3 fibroblasts, dose response, counter-screen, cell-based, ATP luminescence, mouse fibroblasts (AID 2010); assay type: functional;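 also: cells exposed to compound for about 90 hours before reading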
[18] = system: HEK293; test: cells; assay type: functional, cell-based; conditions: Homo sapiens
[19] = human group III sPLA2 inhibitors, dose response, biochemical, QFRET, IC50 (AID 743457);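 also: green fluorescence rise as the enzyme cleaves BODIPY PC-A2 in liposomes; potency for inhibition of the enzyme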
[20] = system: HEK293; test: cells; conditions: Homo sapiens
[21] = system: HEK293; test: cells; assay type: functional, cell-based; conditions: Homo sapiens; remark: listed apart in the source
[22] = inhibitors of intracellular T. cruzi replication, confirmation, NIH3T3 host cells, beta-gal luminescence (AID 2044); assay type: functional, cell-based;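 also: intracellular parasites grown in NIH/3T3 mouse fibroblasts as host cells; luminescent beta-galactosidase reporter signal from transgenic T. cruzi replicating inside host cells; inhibitors lower the luminescence signal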
[23] = system: HEK293; test: cells; assay type: functional, cell-based; conditions: Homo sapiens; remark: listed apart in the source
[24] = ADAM10 protease inhibitors, dose response, selectivity assay for ADAM17 exosite inhibitor project, biochemical, FRET peptide substrate, recombinant human ADAM10 (AID 743259);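 also: ADAM10 enzyme cleaving a FRET peptide substrate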
[25] = target: T1, Disintegrin and metalloproteinase domain-containing protein 17 (Homo sapiens, UniProt P78536); test: exosite inhibitors of ADAM17, dose response, biochemical (AID 743260)
[26] = ADAM10 inhibitors, peptide cleavage, dose response, biochemical, QFRET (AID 743254);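 also: ADAM10 enzyme with the DM2 quenched FRET peptide as substrate; EDANS fluorescence gain as the protease cuts the substrate; inhibitor potency against ADAM10 proteolytic activity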
[27] = target: T1, Disintegrin and metalloproteinase domain-containing protein 17; test: ADAM17 protease inhibitors, dose response, counter-screen for ADAM10 exosite inhibitor project, biochemical, quenched FRET substrate (AID 743253)
[28] = target: Caspase-6 (Homo sapiens, UniProt P55212); test: human caspase-6 inhibitors, dose response, biochemical, VEID-R110 fluorescence, cherry-pick (AID 720632)
[29] = target: Caspase-7 (Homo sapiens, UniProt P55210); test: human caspase-7 inhibitors, dose response, selectivity assay for caspase-6 inhibitor project, biochemical, DEVD-R110 fluorescence, cherry-pick (AID 743295)
[30] = target: Caspase-8 (Homo sapiens, UniProt Q14790); test: caspase-8 inhibition counter-screen, dose response, selectivity assay for caspase-6 inhibitor project, biochemical, Z-IETD-R110 fluorescence, cherry-picked samples (AID 743294)
[31] = HEK293 cell cytotoxicity, dose response, cytotoxicity control, cherry-picks, set 5 (AID 1053117); assay type: functional, cell-based
[32] = inhibitors of fibronectin matrix deposition, dose response, AH1F cells, Alexa488-FN fluorescence, cherry-picks (AID 1035475); assay type: functional, cell-based
[33] = target: Potassium channel subfamily K member 3 (Homo sapiens, UniProt O14649); test: TASK1 (KCNK3) potassium channel inhibitors, SAR follow-up, CHO cells, FluxOR thallium flux (AID 652212); assay type: functional
[34] = PAX5 activity inhibitors, dose response, selectivity assay for PAX8 inhibitor project, cell-based, plate reader, dry powder samples (AID 743047); assay type: functional;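 also: HEK293 cells carrying a Pax5 driven CD19 promoter luciferase reporter; potency of inhibitors that lower reporter luminescence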
[35] = cytotoxicity in OV-90 ovarian cancer cells, dose response, PAX8 inhibitor project, cell-based, plate reader, dry powder, SA8 (AID 743149); assay type: functional
[36] = cytotoxicity in OVCAR8 ovarian cancer cells, dose response, PAX8 project, cell-based, plate reader, dry powder samples (AID 743197); assay type: functional; conditions: OVCAR-8
[37] = cytotoxicity in COV434 cells, dose response, cytotoxicity control for PAX8 inhibitor project, cell-based, plate reader, dry powder, SA7 (AID 743145); assay type: functional
[38] = target: Paired box protein Pax-8 (Homo sapiens, UniProt Q06710); test: inhibitors of PAX8-driven TPO luciferase reporter, dose response, RMG-I cells, cherry-pick (AID 687027); assay type: functional, cell-based;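 also: luciferase reporter driven by Pax8 target thyroperoxidase promoter measured by SteadyGlo luminescence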
[39] = NIH:OVCAR-3 ovarian cancer cell cytotoxicity, dose response, PAX8 inhibitor project, plate reader, dry powder samples (AID 743044); assay type: functional, cell-based
[40] = PAX2 cell-based inhibition, dose response, selectivity assay for PAX8 inhibitor project, plate reader, dry powder samples (AID 743048); assay type: functional;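 also: HEK293 cells carrying a WT1 promoter luciferase reporter driven by expressed Pax2; potency is for inhibition of Pax2 driven reporter signal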
[41] = cytotoxicity dependent on PAX8, dose response, cell-based, plate reader, dry powder (AID 743049); assay type: functional
[42] = cytotoxicity in COV362 ovarian cancer cells, dose response, cytotoxicity control for PAX8 inhibitor project, cell-based, plate reader, dry powder, SA12 (AID 743144); assay type: functional
[43] = non-specific cell cytotoxicity, dose response, cytotoxicity control for PAX8 inhibitor project, plate reader, dry powder samples (AID 743021); assay type: functional, cell-based
[44] = A2780 ovarian cancer cell cytotoxicity, dose response, cytotoxicity control, plate reader, dry powder samples (AID 743046); assay type: functional, cell-based
[45] = IGROV1 ovarian cancer cell cytotoxicity, dose response, PAX8 inhibitor project, plate reader, dry powder samples (AID 743043); assay type: functional, cell-based; conditions: IGROV-1

T1 sequence (P78536 whole entry, the tested form may be a part): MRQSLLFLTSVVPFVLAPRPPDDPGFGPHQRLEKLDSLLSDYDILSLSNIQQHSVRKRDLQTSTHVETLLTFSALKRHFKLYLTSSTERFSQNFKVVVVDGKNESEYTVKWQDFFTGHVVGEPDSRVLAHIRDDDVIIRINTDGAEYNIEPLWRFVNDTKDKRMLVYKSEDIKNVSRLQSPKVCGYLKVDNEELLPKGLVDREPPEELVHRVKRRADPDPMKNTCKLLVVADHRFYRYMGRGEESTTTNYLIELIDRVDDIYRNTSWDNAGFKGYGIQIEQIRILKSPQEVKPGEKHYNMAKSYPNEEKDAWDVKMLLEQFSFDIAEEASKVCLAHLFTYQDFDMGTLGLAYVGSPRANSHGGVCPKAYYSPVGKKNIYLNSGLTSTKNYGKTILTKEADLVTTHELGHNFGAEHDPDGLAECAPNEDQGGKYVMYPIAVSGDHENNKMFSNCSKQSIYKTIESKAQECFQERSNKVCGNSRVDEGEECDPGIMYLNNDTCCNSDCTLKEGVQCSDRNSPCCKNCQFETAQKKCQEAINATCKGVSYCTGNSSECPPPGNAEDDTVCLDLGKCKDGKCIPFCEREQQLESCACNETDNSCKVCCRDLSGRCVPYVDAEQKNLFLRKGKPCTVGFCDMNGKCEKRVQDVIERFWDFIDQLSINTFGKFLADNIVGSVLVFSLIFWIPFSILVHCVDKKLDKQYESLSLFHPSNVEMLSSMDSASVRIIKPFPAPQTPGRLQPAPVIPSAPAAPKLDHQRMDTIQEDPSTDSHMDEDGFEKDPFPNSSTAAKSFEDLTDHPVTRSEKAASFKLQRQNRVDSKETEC
Sequence of Paired box protein Pax-8 (Q06710 whole entry): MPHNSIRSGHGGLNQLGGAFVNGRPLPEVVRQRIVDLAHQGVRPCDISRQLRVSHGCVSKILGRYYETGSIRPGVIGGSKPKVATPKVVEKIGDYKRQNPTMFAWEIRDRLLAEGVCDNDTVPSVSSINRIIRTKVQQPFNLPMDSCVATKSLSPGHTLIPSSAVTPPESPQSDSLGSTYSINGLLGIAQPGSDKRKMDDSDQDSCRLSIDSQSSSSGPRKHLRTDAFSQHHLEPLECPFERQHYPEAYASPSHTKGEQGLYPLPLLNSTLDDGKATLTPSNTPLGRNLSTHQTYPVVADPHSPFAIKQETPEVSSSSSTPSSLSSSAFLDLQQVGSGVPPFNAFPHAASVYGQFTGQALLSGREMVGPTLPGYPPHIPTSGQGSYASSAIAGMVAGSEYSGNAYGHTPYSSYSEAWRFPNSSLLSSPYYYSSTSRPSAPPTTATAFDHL
Sequence of Caspase-8 (Q14790 217-374 limits assumed): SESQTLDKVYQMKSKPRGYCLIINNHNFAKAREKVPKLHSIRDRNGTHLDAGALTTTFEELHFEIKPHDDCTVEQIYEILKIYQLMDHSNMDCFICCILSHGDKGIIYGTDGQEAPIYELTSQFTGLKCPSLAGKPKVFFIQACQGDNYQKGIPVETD
Sequence of Caspase-8 (Q14790 385-479 limits assumed): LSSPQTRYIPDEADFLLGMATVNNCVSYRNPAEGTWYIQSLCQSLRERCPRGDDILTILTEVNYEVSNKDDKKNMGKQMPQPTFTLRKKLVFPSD
Sequence of Caspase-6 (P55212 24-179 limits assumed): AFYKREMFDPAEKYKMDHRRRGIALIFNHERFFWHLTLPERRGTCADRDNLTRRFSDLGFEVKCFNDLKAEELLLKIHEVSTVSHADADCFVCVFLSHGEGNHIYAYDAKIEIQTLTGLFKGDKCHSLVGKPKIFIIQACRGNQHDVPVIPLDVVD
Sequence of Caspase-6 (P55212 194-293 limits assumed): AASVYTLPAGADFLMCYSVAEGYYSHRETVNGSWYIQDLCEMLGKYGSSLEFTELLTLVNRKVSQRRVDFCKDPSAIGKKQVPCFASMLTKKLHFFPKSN
Sequence of Caspase-7 (P55210 24-198 limits assumed): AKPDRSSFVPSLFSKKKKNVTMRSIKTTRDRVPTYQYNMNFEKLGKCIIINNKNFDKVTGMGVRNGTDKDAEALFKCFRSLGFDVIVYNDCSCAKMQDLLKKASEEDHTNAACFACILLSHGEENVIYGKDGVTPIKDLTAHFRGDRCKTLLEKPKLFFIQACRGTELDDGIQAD
Sequence of Caspase-7 (P55210 207-303 limits assumed): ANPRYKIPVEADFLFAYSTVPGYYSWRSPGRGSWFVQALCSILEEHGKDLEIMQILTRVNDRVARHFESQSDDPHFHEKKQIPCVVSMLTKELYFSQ
Sequence of Potassium channel subfamily K member 3 (O14649 whole entry): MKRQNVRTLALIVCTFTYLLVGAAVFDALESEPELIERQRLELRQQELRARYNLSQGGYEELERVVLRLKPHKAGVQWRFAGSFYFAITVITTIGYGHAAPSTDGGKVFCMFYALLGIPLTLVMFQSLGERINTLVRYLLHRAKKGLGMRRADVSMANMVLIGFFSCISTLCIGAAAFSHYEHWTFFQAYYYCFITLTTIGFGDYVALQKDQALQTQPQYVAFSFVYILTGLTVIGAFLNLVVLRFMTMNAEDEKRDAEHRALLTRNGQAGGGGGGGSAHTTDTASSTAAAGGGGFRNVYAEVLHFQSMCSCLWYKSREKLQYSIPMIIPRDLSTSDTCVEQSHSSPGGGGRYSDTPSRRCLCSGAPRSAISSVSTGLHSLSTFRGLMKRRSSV

## Cc1cccc(S(=O)(=O)N2C[C@@H]3N[C@H](C2)[C@H]3c2ccc(-c3ccncc3)cc2)c1
[1]
  AC50: 1.84 µM (active)
[2]
  AC50: 1.48 µM (active)
[3]
  AC50: 41.5 µM (active)
[4]
  AC50: 2.12 µM (active)
[5]
  AC50: 3.58 µM (active)
[6]
  AC50: > 39 µM (inactive)

## Cc1ccc(O)c(-c2cc(-c3cccc(Br)c3)[nH]n2)c1
[7]
  EC50: 4.48 µM (active)
[8]
  AC50: 3.01 µM (active)
[9]
  EC50: 16.3 µM (active)
[10]
  AC50: 37.3 µM (active)

## O=C(Nc1ccc(N2CCOCC2)cc1)c1ccc(Cl)c(S(=O)(=O)N2CCCC2)c1
[11]
  AC50: 22.3 µM (active)
[12]
  AC50: 2.17 µM (active)
[13]
  AC50: 2.65 µM (active)
[14]
  AC50: 69.4 µM (active)

## Fc1ccc(NC(S)=Nc2nccs2)cc1
[15]
  EC50: 5.3 µM (active)
[16]
  IC50: 6.34 µM (inactive)
[17]
  EC50: > 60 µM (inconclusive)
[18]
  IC50: > 20 µM (inactive)
[19]
  IC50: > 122 µM (inactive)
[20]
  IC50: > 20 µM (inactive)
[21]
  IC50: > 20 µM (inactive)
[22]
  EC50: 2.79 µM (active)
[23]
  IC50: > 20 µM (inactive)

## COc1ccc(N(C)S(=O)(=O)c2cccc(C(=O)OC(C(=O)Nc3cc(C)cc(C)c3)c3ccccc3)c2)cc1 (stereo not drawn)
[24]
  IC50: > 69.5 µM (inactive)
[25]
  IC50: > 69.5 µM (inactive)

## Cc1cc(C)cc(NS(=O)(=O)c2ccc(NC(=S)NC(=O)c3ccc(Br)o3)cc2)c1
[26]
  IC50: 11.7 µM (inactive)
[27]
  IC50: > 69.5 µM (inactive)

## CCCCN(C(=O)c1cccc(-n2cccc2)c1)c1c(N)n(Cc2ccccc2)c(=O)[nH]c1=O
[28]
  AC50: 4.26 µM (active)
[29]
  AC50: > 22 µM (inactive)
[30]
  AC50: 46.1 µM (active)

## O=S(=O)(c1cccc(F)c1)N1CC[C@H]2[C@H](CO)Nc3ccc(-c4cccc(F)c4)cc3[C@H]21
[31]
  AC50: > 52 µM (inactive)
[32]
  AC50: 41.9 µM (active)

## CCOc1ccccc1NC(=O)c1cccc(NC(=O)c2ccc(OC)cc2)c1
[33]
  IC50: 0.3 µM (active)

## N#C[C@H]1[C@H](c2ccc(C#CC3CCCC3)cc2)[C@@H](CO)N1C(=O)Nc1ccc(F)cc1
[34]
  AC50: 7.84 µM (active)
[35]
  AC50: 29 µM (active)
[36]
  AC50: 27.2 µM (active)
[37]
  AC50: 20.4 µM (active)
[38]
  AC50: 5.59 µM (active)
[39]
  AC50: 42.8 µM (active)
[40]
  AC50: 7.21 µM (active)
[41]
  AC50: 19.1 µM (active)
[42]
  AC50: 32.1 µM (active)

## COc1ccc(S(=O)(=O)Nc2ccc3c(c2)C(=O)N([C@H](C)CO)C[C@H](C)[C@@H](CN(C)S(=O)(=O)c2ccc(Cl)cc2)OCCCC[C@H](C)O3)cc1
[43]
  AC50: 51.9 µM (active)
[44]
  AC50: 21.4 µM (active)
[36]
  AC50: > 70 µM (inactive)
[38]
  AC50: 7.7 µM (active)
[39]
  AC50: 16 µM (active)
[45]
  AC50: 24.8 µM (active)
